According to paper PMC12679848, “Sulphonamide derivatives with a triazine core as novel inducers of apoptosis and pyroptosis in glioblastoma multiforme cells” (Journal of Enzyme Inhibition and Medicinal Chemistry, 2025):
Like-named read-outs stand apart in the source and are kept apart here.

Legend:
[1] = test system: U-118 MG; assay: MTT assay, U-118 MG; format: cell-based; details: Homo sapiens, 24 h of incubation, read-out: IC50 values ± SEM, MTT assay
Protocol: (§1) Human glioblastoma cell lines (A172 CRL-1620™, U-87 MG HTB-14™, U-118 MG HTB-15™, T98G CRL-1690™) and the mouse astrocyte cell line (C8-D1A CRL-2541™) were obtained from the American Type Culture Collection (ATCC, Manassas, VA, USA). The cell lines were cultured in complete medium: DMEM (Corning, Kennebunk, ME, USA) for C8-D1A and T98G, and EMEM (ATCC, Manassas, VA, USA) for A172, U-87 MG, U118MG. The media were supplemented with 10% foetal bovine serum (Eurx, Gdansk, Poland) and 1% penicillin-streptomycin solution (Corning, Kennebunk, ME, USA). Cells were cultured in cell culture flasks (Sarstedt, Numbrecht, Germany) at 37 °C in 5% CO2. For experiments, cells were washed with phosphate-buffered saline without calcium and magnesium (Corning, Kennebunk, ME, USA) and treated with 0.05% trypsin and 0.02% EDTA (Corning, Kennebunk, ME, USA). Cells were counted using a Sceptre 3.0 cell counter (Merck Millipore, Burlington, MA, USA) prior to seeding into plates. For 6-well plates, 5 x 10^5 cells/mL were seeded, while for 96-well plates (Sarstedt, Numbrecht, Germany), 1 x 10^5 cells/mL were seeded in 100 μL of the medium.
(§2) The cell lines were seeded in 96-well plates and cultured according to the methodology described in the previous section. Cells were then treated with the novel derivatives MM118 and MM119 and the reference compound temozolomide (TMZ) (Sigma-Aldrich, St. Louis, MO, USA) at concentrations of 0.1, 0.25, 0.5, 1.0, 2.5, 5.0, and 10.0 μM for 24 h. The MTT assay was performed using a solution of 3–(4,5-dimethyl-2-thiazolyl)-2,5-diphenyl-2H-tetrazolium bromide (Sigma-Aldrich, St. Louis, MO, USA) at a concentration of 5 mg/mL in phosphate-buffered saline without calcium and magnesium (Corning, Kennebunk, ME, USA). After 24 h incubation with test compounds, 10 μL MTT solution was added to each well, and cells were incubated for another 2 h at 37 °C. The cells were then lysed in 100 μL lysis buffer (25 mM HCl, 2% acetic acid, 3% DMF, and 5% SDS, adjusted to pH 4.7). Absorbance was measured at 570 nm using an Absorbance 96 microplate reader (Byonoy GmbH, Hamburg, Germany).

[2] = test system: T98G; assay: MTT assay, T98G; format: cell-based; details: Homo sapiens, 24 h of incubation
Protocol: as §1, §2

[3] = test system: A172; assay: MTT assay, A172; format: cell-based; details: Homo sapiens, A172, 24 h of incubation
Protocol: as §1, §2

[4] = test system: DNA; set-up: method as in PMID 36835469; details: comet assays; cited from earlier work
[5] = test system: U-87 MG; assay: MTT assay, U-87 MG; format: cell-based; details: Homo sapiens, 24 h of incubation
Protocol: as §1, §2

[6] = test system: C8-D1A; assay: MTT assay, C8-D1A astrocytes; format: cell-based; details: C8-D1A mouse astrocytes, 24 h of incubation
Protocol: as §1, §2

[7] = 24 h, heading: IC50 values ± SEM, MTT assay
[8] = read-out: IC50 values ± SEM, MTT assay
[9] = A 172, read-out: IC50 values ± SEM, MTT assay

| SMILES | IC50 [1] [µM] | IC50 [2, 7] [µM] | IC50 ([3]; A 172, 24 h, heading: IC50 values ± SEM, MTT assay) [µM] | DNA damage (single-strand and double-strand breaks) [4] | IC50 [5, 7] [µM] | IC50 [6, 7] [µM] | IC50 [2, 8] [µM] | IC50 [5, 8] [µM] | IC50 [3, 9] [µM] | IC50 [6, 8] [µM] |
| --- | --- | --- | --- | --- | --- | --- | --- | --- | --- | --- |
| COC(=O)C1CCCN1S(=O)(=O)c1ccc(-n2nc(C)c3nc4nnnn4nc32)cc1 (stereo not shown) [MM128, Methyl 1-[4–(7-methyl-5H-pyrazolo[4,3-e]tetrazolo[1,5-b][1]^,[2]^,[4]triazin-5-yl)phenylsulfonyl]-pyrrolidine-2-carboxylate] | 563 | 1.53 | 1.65 | – | – | – | – | – | – | – |
| COC(=O)C1CC(O)CN1S(=O)(=O)c1ccc(-n2nc(C)c3nc4nnnn4nc32)cc1 (stereo not shown) [MM129, Methyl (Z)-4-hydroxy-1-[4–(7-methyl-5H-pyrazolo[4,3-e]tetrazolo[1,5-b][1]^,[2]^,[4]triazin-5-yl)phenyl-sulfonyl]pyrrolidine-2-carboxylate] | – | – | – | induce DNA damage | 2.35 | 2.86 | – | – | – | – |
| Cc1nn(-c2ccc(S(=O)(=O)N[C@H](C)CO)cc2)c2nn3nnnc3nc12 [MM131] | – | – | – | induce DNA damage | – | – | – | – | – | – |
| Cc1nn(-c2ccc(S(=O)(=O)NC[C@@H](O)CO)cc2)c2nn3nnnc3nc12 [MM127] | > 10 | – | – | – | – | – | > 10 | > 10 | > 10 | > 10 |
| Cc1nn(-c2ccc(S(=O)(=O)N[C@@H](CO)CC(C)C)cc2)c2nn3nnnc3nc12 [MM124] | > 10 | – | – | – | – | – | > 10 | > 10 | > 10 | > 10 |
| Cc1nn(-c2ccc(S(=O)(=O)NC[C@H](O)CO)cc2)c2nn3nnnc3nc12 [MM126] | > 10 | – | – | – | – | – | > 10 | > 10 | > 10 | > 10 |
